# From patent US20230346831A1, “METHODS FOR TREATING […] USING LOW DOSE CARBON MONOXIDE” (priority 2020, published 2023)
# Entries after “also recorded” stand apart in the source; their conditions may differ.
# What was measured:
# Format in all cases: cell-based, human
# [1] = test system: cancer cells across different cancer types; assay: in vitro transwell migration assay, statements across cancer types; details: 16 hours
# Protocol: Migration of different cancer cells under control air or 250 ppm CO treatment with or without supplement of 30 µM hemin was determined using in vitro transwell migration chamber with a serum gradient. Indicated cell lines were seeded into the transwell inserts. 16 hours later, cells on the top of the upper chambers were removed, and cells on the bottom surface of the transwell inserts were fixed, stained with crystal violet, and counted from eight randomly picked fields in three independent experiments. Error bars represent SEM. *: P < 0.05, two-sided t-test. Scale bar, 100 µm. […]
# (§1) 6.5 mm Transwell with 8.0 µm Pore Polycarbonate Membrane Insert (Corning, NY, Cat. No. 3422) was used for the cell migration assay (FIG. 1J). After 16 hours of incubation, cells migrated to the opposite side of the upper chambers were fixed with 4% paraformaldehyde, stained with 0.2% crystal violet for 30 min and counted in five fields under × 20 magnification. […] The optical density was measured at 595 nm (OD595). […]
# (§2) To investigate whether 250 ppm CO induces hypoxia, HiF1α protein levels in low-dose CO-treated MCF7/TGL and MDA-MB-231/TGL cells were examined. […] To assess the intracellular heme levels affected by low-dose CO treatment, oxidized heme levels in the form of hemin (Fe^3+ state) were measured because free heme (Fe^2+ state) is readily oxidized and cannot be measured. […]
# MDA-MB-231 cells = assay: proliferation assay (crystal violet, OD595); details: 16 hours
# Protocol: (§3) Proliferation of different cancer cells under control air or 250 ppm CO treatment with or without supplement of 30 µM hemin was determined. Indicated cell lines cell lines were seeded in the 24-well plate in normal growth media. 16 hours later, cells were fixed, stained with crystal violet, and lysed by methanol. OD595 were measured from triplicates of each cell type. Error bars represent SEM. *: P < 0.05, two-sided t-test. Scale bar, 100 µm.
# 6.5 mm Transwell with 8.0 µm Pore Polycarbonate Membrane Insert (Corning, NY, Cat. No. 3422) was used for the cell migration assay (FIG. 1J). After 16 hours of incubation, cells migrated to the opposite side of the upper chambers were fixed with 4% paraformaldehyde, stained with 0.2% crystal violet for 30 min and counted in five fields under × 20 magnification. In parallel, cells were seeded on 24-well plates for proliferation assay. Cells for proliferation control were fixed with 4% paraformaldehyde, stained with 0.2% crystal violet for 30 min and lysed with methanol to release the crystal violet as described by M. Feoktistova, P. Geserick, & M. Leverkus, Cold Spring Harb Protoc 2016, pdb prot087379 (2016). The optical density was measured at 595 nm (OD595). To supplement heme/hemin in the transwell migration assay, 30 µM hemin (MedChemExpress, Monmouth Junction, NJ, Cat. No. HY-19424) was added to both the cell suspension in the upper chambers and the bottom wells.
# To examine whether CO has an effect on tumor cell migration, in vitro transwell migration assays were performed. […] Cell migration through the transwell membrane along a serum gradient (Table 1) after 16 hours in the presence or absence of 250 ppm CO were measured.
# 5 × 10^4 MDA-MB-231-TGL cells were seeded in the upper chamber of 8-µm porous polycarbonate membranes with DMEM containing 0% FBS, 0.2 mM L-glutamine and 1% penicillin/streptomycin. […] The optical density was measured at 595 nm (OD595).
# [2] = test system: various cancer cell lines; assay: proliferation assay, statements across cancer types
# Protocol: as §3
# as §1, with “magnification. In parallel, cells were seeded on 24-well plates for proliferation assay.” for “magnification.”
# as §2
# [3] = test system: intracellular heme/hemin levels; assay: heme colorimetric assay of intracellular heme
# Protocol: Cells were grown to 75-80% confluence in 10-cm cell culture plates and collected in 1 ml cold PBS by cell scraper. 10 µl of the cells was transferred to a new tube for protein lysate preparation and protein concentration measurement. The rest of the cells were lysed in Heme extraction buffer (acetone: HCl: water = 25: 1.3: 5) as described by J. Hooda, M. Alam, & L. Zhang, J Vis Exp, e51579 (2015). Heme levels were measured using a heme colorimetric assay kit (BioVision, Milpitas, CA, Cat. No. K672-100) and normalized by the protein concentration of each sample.
# To investigate whether 250 ppm CO induces hypoxia, HiF1α protein levels in low-dose CO-treated MCF7/TGL and MDA-MB-231/TGL cells were examined. Compared to the control cells grown in a standard tissue culture incubator, HiF1α protein levels were not changed after 250 ppm CO treatment for 16 hours (FIG. 4A). To identify genes and pathways that were affected by 250 ppm CO, RNA-Seq and gene set enrichment analysis (GESA) of MCF7 and MDA-MB-231 cells were performed after 16 hours in a CO incubator or in a regular cell culture incubator. […] To assess the intracellular heme levels affected by low-dose CO treatment, oxidized heme levels in the form of hemin (Fe^3+ state) were measured because free heme (Fe^2+ state) is readily oxidized and cannot be measured. […]
Compound,"cancer cell migration across different cancer types ([1]; 250 ppm CO, transwell with serum gradient, vs control air)","inhibitory effect on MDA-MB-231 cell proliferation by seeding density (MDA-MB-231 cells; CO, higher density (6.25 × 10^4 or 12.5 × 10^4 cells per 24-well) compared with lower density (3.125 × 10^4 cells per 24-well))","cell proliferation (MDA-MB-231 cells; MDA-MB-231 cells, 250 ppm CO, vs control air)","cancer cell proliferation across different cancer types ([2]; 250 ppm CO for 16 hours, vs control air)","intracellular heme/hemin levels ([3]; MCF7 and MDA-MB-231 cells, 250 ppm CO)","cell migration inhibited by CO (rescue by hemin supplement) ([1]; 30 µM hemin + 250 ppm CO, transwell, cell lines not named at the place (FIGS. 1A-1I; 1C-1E))","cancer cell proliferation with hemin supplement (MDA-MB-231 cells; MDA-MB-231/TGL cells, 30 µM hemin, with or without 250 ppm CO)",cell proliferation of various cancer cell lines with hemin ([2]; 30 µM hemin in the medium (FIGS. 2C-2E)),"intracellular heme levels with hemin supplement ([3]; 30 µM hemin in the medium, CO-treated cells)"
"[C-]#[O+] [CO, Carbon monoxide]",decreases,greater inhibitory effect,did not affect,does not affect,significantly reduced,–,–,–,–
Hemin [reference compound],–,–,–,–,–,partially restored; also recorded: rescued,did not alter,slightly increased,increased
